Values after ≈ are worked out from the molar mass of the structure shown.
Key:
Assay type in all cases: cell-based
E. faecalis = experiment: Broth dilution MIC determination (CLSI) against E. faecalis strains
Excerpt: (§1) Minimum inhibitory concentrations (MICs) for macrolides described herein have been determined for unique strains of S. aureus, S. pneumoniae, S. pyogenes, E. faecalis, E. coli, A. baumannii, K. pneumoniae, P. aeruginosa, and H. influenzae, including several multidrug-resistant strains, with a special focus on macrolide resistant mechanisms. Azithromycin and solithromycin were included as control compounds. CLSI standard procedures for broth dilution MIC determination were used. Data for exemplary compounds described herein is shown in Tables M1-M7 and in Tables N1-N4.

S. pneumoniae = experiment: Broth dilution MIC determination (CLSI) against S. pneumoniae strains
Excerpt: as §1

P. aeruginosa = experiment: Broth dilution MIC determination (CLSI) against P. aeruginosa strains
Excerpt: as §1

S. aureus = experiment: Broth dilution MIC determination (CLSI) against S. aureus strains
Excerpt: as §1

S. pyogenes = experiment: Broth dilution MIC determination (CLSI) against S. pyogenes strains
Excerpt: as §1

K. pneumoniae = experiment: Broth dilution MIC determination (CLSI) against K. pneumoniae strains
Excerpt: Minimum inhibitory concentrations (MICs) for macrolides described herein have been determined for unique strains of S. aureus, S. pneumoniae, S. pyogenes, E. faecalis, E. coli, A. baumannii, K. pneumoniae, P. aeruginosa, and H. influenzae, including several multidrug-resistant strains, with a special focus on macrolide resistant mechanisms. Azithromycin and solithromycin were included as control compounds. CLSI standard procedures for broth dilution MIC determination were used.

A. baumannii = experiment: Broth dilution MIC determination (CLSI) against A. baumannii strains
Excerpt: as §1

E. coli = experiment: Broth dilution MIC determination (CLSI) against E. coli strains
Excerpt: as §1

[1] = E. faecalis ATCC29212, strain MP-24 (Table N2)
[2] = E. faecalis van resistant, strain UNT-039 (Table N2)
[3] = S. pneumoniae ATCC49619, strain MP-21 (Table N2)
[4] = S. pneumoniae mefA, strain MP-626 UNT-038 (Table N2)
[5] = S. pneumoniae mefA, strain MP-627 UNT-039 (Table N2)
[6] = P. aeruginosa ATCC27853, strain MP-3 (Table N2)
[7] = P. aeruginosa PAO1, strain MP-7 (Table N2)
[8] = P. aeruginosa PAO1:mex, strain MP-8 (Table N2)
[9] = S. aureus (MRSA) GISA USA600, strain MP-619 UNT-120 (Table N2)
[10] = S. aureus (MRSA) ST-228 cErm, strain MP-513 (Table N2)
[11] = S. aureus (MRSA) USA100, strain MP-618 UNT-096 (Table N2)
[12] = S. aureus (MRSA) USA300, strain MP-549 (Table N2)
[13] = S. aureus (MRSA) ermA phenotype, strain MP-620 UNT-146 (Table N2)
[14] = S. aureus ATCC29213, strain MP-12 (Table N2)
[15] = S. aureus ATCCBAA-977, strain MP-17 (Table N2)
[16] = S. pyogenes ATCC19615, strain MP-19 (Table N2)
[17] = S. pyogenes mac resistant, strain MP-625 UNT-014 (Table N2)
[18] = K pneumomae ATCC10031, strain MP-14 (Table N2)
[19] = K. pneumoniae clinical, strain MP546 (Table N2)
[20] = K. pneumoniae clinical, strain MP548 (Table N2)
[21] = A. baumannii ATCC19606, strain MP-15 (Table N2)
[22] = A. baumannii clinical, strain MP576 (Table N2)
[23] = A. baumannii clinical, strain MP577 (Table N2)
[24] = E. coli ATCC25922, strain MP-4 (Table N2)
[25] = E. coli ATCC25922:tolC, strain MP-9 (Table N2)
[26] = E. coli clinical, strain MP541 (Table N2)
[27] = E. coli clinical-cErm, strain MP532 (Table N2)

CCC1OC(=O)C(C)C(=O)C(C)C(OC2OC(C)CC(NCC#N)C2O)C(C)(OC)CC(C)CNC(C)C2N(CCCCn3cc(-c4cccc(N)c4)nn3)C(=O)OC12C (stereo not drawn) [FSM-120369]
MIC E. faecalis ATCC29212 (E. faecalis; ATCC29212, Strain No. MP-24): 4 µg/mL (≈ 4.77 µM)
MIC E. faecalis van resistant (E. faecalis; van resistant, Strain No. UNT-039): >64 µg/mL
MIC S. pneumoniae ATCC49619 (S. pneumoniae; ATCC49619, Strain No. MP-21): 0.5 µg/mL (≈ 0.596 µM)
MIC S. pneumoniae mefA (S. pneumoniae; Strain No. MP-626 UNT-038): 0.25 µg/mL (≈ 0.298 µM)
MIC S. pneumoniae mefA (S. pneumoniae; Strain No. MP-627 UNT-039): 0.25 µg/mL (≈ 0.298 µM)
MIC P. aeruginosa ATCC27853 (P. aeruginosa; ATCC27853, Strain No. MP-3): >64 µg/mL
MIC P. aeruginosa PAO1 (P. aeruginosa; PAO1, Strain No. MP-7): >64 µg/mL
MIC P. aeruginosa PAO1:mex (P. aeruginosa; PAO1:mex, Strain No. MP-8): >64 µg/mL
MIC S. aureus ATCC29213 (S. aureus; ATCC29213, Strain No. MP-12): 32 µg/mL (≈ 38.1 µM)
MIC S. aureus ATCCBAA-977 (S. aureus; ATCCBAA-977, Strain No. MP-17): 32 µg/mL (≈ 38.1 µM)
MIC S. aureus (MRSA) GISA USA600 (S. aureus; GISA USA600, Strain No. MP-619 UNT-120): >64 µg/mL
MIC S. aureus (MRSA) ST-228 cErm (S. aureus; ST-228 cErm, Strain No. MP-513): >64 µg/mL
MIC S. aureus (MRSA) USA100 (S. aureus; USA100, Strain No. MP-618 UNT-096): >64 µg/mL
MIC S. aureus (MRSA) USA300 (S. aureus; USA300, Strain No. MP-549): 32 µg/mL (≈ 38.1 µM)
MIC S. aureus (MRSA) ermA phenotype (S. aureus; ermA phenotype, Strain No. MP-620 UNT-146): >64 µg/mL
MIC S. pyogenes ATCC19615 (S. pyogenes; ATCC19615, Strain No. MP-19): 0.5 µg/mL (≈ 0.596 µM)
MIC S. pyogenes mac resistant (S. pyogenes; mac resistant, Strain No. MP-625 UNT-014): 2 µg/mL (≈ 2.38 µM)
MIC K. pneumoniae ATCC10031 (K. pneumoniae; ATCC10031, Strain No. MP-14): 16 µg/mL (≈ 19.1 µM)
MIC K. pneumoniae clinical (K. pneumoniae; Strain No. MP546): >64 µg/mL
MIC K. pneumoniae clinical (K. pneumoniae; Strain No. MP548): >64 µg/mL
MIC A. baumannii ATCC19606 (A. baumannii; ATCC19606, Strain No. MP-15): >64 µg/mL
MIC A. baumannii clinical (A. baumannii; Strain No. MP576): >64 µg/mL
MIC A. baumannii clinical (A. baumannii; Strain No. MP577): >64 µg/mL
MIC E. coli ATCC25922 (E. coli; ATCC25922, Strain No. MP-4): >64 µg/mL
MIC E. coli ATCC25922:tolC (E. coli; ATCC25922:tolC, Strain No. MP-9): >64 µg/mL
MIC E. coli clinical (E. coli; clinical, Strain No. MP541): >64 µg/mL
MIC E. coli clinical-cErm (E. coli; clinical-cErm, Strain No. MP532): >64 µg/mL

CCC1OC(=O)C(C)C(=O)C(C)C(OC2OC(C)CC(N(C)CC#N)C2O)C(C)(OC)CC(C)CNC(C)C2N(CCCCn3cc(-c4cccc(N)c4)nn3)C(=O)OC12C (stereo not drawn) [FSM-120371]
MIC (E. faecalis; [1]): 4 µg/mL (≈ 4.69 µM)
MIC (E. faecalis; [2]): 64 µg/mL (≈ 75 µM)
MIC (S. pneumoniae; [3]): 0.25 µg/mL (≈ 0.293 µM)
MIC (S. pneumoniae; [4]): 0.25 µg/mL (≈ 0.293 µM)
MIC (S. pneumoniae; [5]): 0.5 µg/mL (≈ 0.586 µM)
MIC (P. aeruginosa; [6]): >64 µg/mL
MIC (P. aeruginosa; [7]): >64 µg/mL
MIC (P. aeruginosa; [8]): 32 µg/mL (≈ 37.5 µM)
MIC (S. aureus; [9]): >64 µg/mL
MIC (S. aureus; [10]): >64 µg/mL
MIC (S. aureus; [11]): >64 µg/mL
MIC (S. aureus; [12]): 64 µg/mL (≈ 75 µM)
MIC (S. aureus; [13]): >64 µg/mL
MIC (S. aureus; [14]): 32 µg/mL (≈ 37.5 µM)
MIC (S. aureus; [15]): 32 µg/mL (≈ 37.5 µM)
MIC (S. pyogenes; [16]): 0.125 µg/mL (≈ 0.147 µM)
MIC (S. pyogenes; [17]): 1 µg/mL (≈ 1.17 µM)
MIC (K. pneumoniae; [18]): 8 µg/mL (≈ 9.38 µM)
MIC (K. pneumoniae; [19]): >64 µg/mL
MIC (K. pneumoniae; [20]): >64 µg/mL
MIC (A. baumannii; [21]): 32 µg/mL (≈ 37.5 µM)
MIC (A. baumannii; [22]): >64 µg/mL
MIC (A. baumannii; [23]): >64 µg/mL
MIC (E. coli; [24]): 64 µg/mL (≈ 75 µM)
MIC (E. coli; [25]): 16 µg/mL (≈ 18.8 µM)
MIC (E. coli; [26]): 64 µg/mL (≈ 75 µM)
MIC (E. coli; [27]): >64 µg/mL

CCC1OC(=O)C(C)C(=O)C(C)C(OC2OC(C)CC(N(CCO)CCO)C2O)C(C)(OC)CC(C)CNC(C)C2N(CCCCn3cc(-c4cccc(N)c4)nn3)C(=O)OC12C (stereo not drawn) [FSM-120379]
MIC (E. faecalis; [1]): 32 µg/mL (≈ 36 µM)
MIC (E. faecalis; [2]): >64 µg/mL
MIC (S. pneumoniae; [3]): 2 µg/mL (≈ 2.25 µM)
MIC (S. pneumoniae; [4]): 1 µg/mL (≈ 1.13 µM)
MIC (S. pneumoniae; [5]): 1 µg/mL (≈ 1.13 µM)
MIC (P. aeruginosa; [6]): >64 µg/mL
MIC (P. aeruginosa; [7]): >64 µg/mL
MIC (P. aeruginosa; [8]): >64 µg/mL
MIC (S. aureus; [9]): >64 µg/mL
MIC (S. aureus; [10]): >64 µg/mL
MIC (S. aureus; [11]): >64 µg/mL
MIC (S. aureus; [12]): >64 µg/mL
MIC (S. aureus; [13]): >64 µg/mL
MIC (S. aureus; [14]): >64 µg/mL
MIC (S. aureus; [15]): >64 µg/mL
MIC (S. pyogenes; [16]): 4 µg/mL (≈ 4.5 µM)
MIC (S. pyogenes; [17]): 16 µg/mL (≈ 18 µM)
MIC (K. pneumoniae; [18]): 32 µg/mL (≈ 36 µM)
MIC (K. pneumoniae; [19]): >64 µg/mL
MIC (K. pneumoniae; [20]): >64 µg/mL
MIC (A. baumannii; [21]): >64 µg/mL
MIC (A. baumannii; [22]): >64 µg/mL
MIC (A. baumannii; [23]): >64 µg/mL
MIC (E. coli; [24]): >64 µg/mL
MIC (E. coli; [25]): 32 µg/mL (≈ 36 µM)
MIC (E. coli; [26]): >64 µg/mL
MIC (E. coli; [27]): >64 µg/mL

CCC1OC(=O)C(C)C(=O)C(C)C(OC2OC(C)CC(N3CCOC3CO)C2O)C(C)(OC)CC(C)CNC(C)C2N(CCCCn3cc(-c4cccc(N)c4)nn3)C(=O)OC12C (stereo not drawn) [FSM-120380]
MIC (E. faecalis; [1]): 64 µg/mL (≈ 72.2 µM)
MIC (E. faecalis; [2]): >64 µg/mL
MIC (S. pneumoniae; [3]): 8 µg/mL (≈ 9.03 µM)
MIC (S. pneumoniae; [4]): 4 µg/mL (≈ 4.51 µM)
MIC (S. pneumoniae; [5]): 4 µg/mL (≈ 4.51 µM)
MIC (P. aeruginosa; [6]): >64 µg/mL
MIC (P. aeruginosa; [7]): >64 µg/mL
MIC (P. aeruginosa; [8]): >64 µg/mL
MIC (S. aureus; [9]): >64 µg/mL
MIC (S. aureus; [10]): >64 µg/mL
MIC (S. aureus; [11]): >64 µg/mL
MIC (S. aureus; [12]): >64 µg/mL
MIC (S. aureus; [13]): >64 µg/mL
MIC (S. aureus; [14]): >64 µg/mL
MIC (S. aureus; [15]): >64 µg/mL
MIC (S. pyogenes; [16]): 8 µg/mL (≈ 9.03 µM)
MIC (S. pyogenes; [17]): 32 µg/mL (≈ 36.1 µM)
MIC (K. pneumoniae; [18]): >64 µg/mL
MIC (K. pneumoniae; [19]): >64 µg/mL
MIC (K. pneumoniae; [20]): >64 µg/mL
MIC (A. baumannii; [21]): >64 µg/mL
MIC (A. baumannii; [22]): >64 µg/mL
MIC (A. baumannii; [23]): >64 µg/mL
MIC (E. coli; [24]): >64 µg/mL
MIC (E. coli; [25]): 32 µg/mL (≈ 36.1 µM)
MIC (E. coli; [26]): >64 µg/mL
MIC (E. coli; [27]): >64 µg/mL

— US11535643B2, “Macrolides with modified desosamine sugars and uses thereof” (President and Fellows of Harvard College, priority 2015, dated 2022)
